Data taken from EPA's ToxValDB 9.5 (doi:10.2903/j.efsa.2017.4718).

Experiments:
Meleagris sp. = conditions: subchronic; duration: 12 weeks; oral; feed; M; no effects
Cyprinus carpio = conditions: subchronic; duration: 6 weeks; oral; feed; histopathology: nonneoplastic
Neovison vison = conditions: short-term; duration: 28 days; oral; diet; F; food consumption
Equus caballus = conditions: subchronic; duration: 40 days; no effects
Canidae = conditions: short-term; duration: 14 days; oral; diet; Dog Other; body weight
Sus scrofa = conditions: subchronic; duration: 3 months; oral; diet; Not specified; food consumption
Oryctolagus sp. = conditions: short-term; duration: 21 days; oral; diet; M; no effects
Gallus gallus = conditions: subchronic; duration: 5 weeks; oral; diet; M; Chicken; no effects
Ovis sp. = conditions: short-term; duration: 28 days; oral; diet; food consumption
Felidae = conditions: short-term; duration: 14 days; oral; diet; Cat; body weight
Anatidae = conditions: not reported; oral; feed; no effects

CC1=C[C@H]2O[C@@H]3[C@H](O)C[C@](C)([C@@]2(CO)[C@H](O)C1=O)[C@@]31CO1 [Vomitoxin] gave an NOAEL (Meleagris sp.) of 6.5 mg/kg, an NOAEL (Cyprinus carpio) of 0.6 mg/kg and an NOAEL (Neovison vison) of 1.18 mg/kg-day. It also gave an NOAEL (Equus caballus) of 36 mg/kg, an NOAEL (Canidae) of 4 mg/kg-day and an LEL (Mus musculus; chronic, duration: 2 years, immunology) of at least 0.0016 mg/kg-day. The NOAEL (Mus musculus; chronic, duration: 2 years, oral, diet, M/F, B6C3F1, food consumption) was 0.1 mg/kg-day, the NOAEL (Mus musculus; developmental, development) was 0.5 mg/kg-day and the NOAEL (Mus musculus; reproduction developmental, oral, diet, M/F, reproduction) was 0.38 mg/kg-day. The NOAEL (Mus musculus; short-term, duration: 14 days, oral, diet, M/F, BALB/cAnCr, hematological) was 0.1 mg/kg-day, the NOAEL (Bovidae; chronic, duration: 126 days, oral, diet, food consumption) was 10 mg/kg-day and the NOAEL (Bovidae; chronic, duration: 166 days, oral, diet, food consumption) was 18 mg/kg-day. It also gave an NOAEL (Bovidae; subchronic, duration: 13 weeks, F, no effects) of 5.24 mg/kg-day, an NOAEL (Sus scrofa) of 0.7 mg/kg-day and an NOAEL (Oryctolagus sp.) of 4.3 mg/kg-day. For the same molecule, the NOAEL (Gallus gallus) was 5 mg/kg-day, the NOAEL (Ovis sp.) was 16 mg/kg-day and the NOAEL (Felidae) was 6 mg/kg-day. It also gave an NOAEL (Anatidae) of 7 mg/kg.
